This note sets out measurements from patent EP4203925B1, “CANNABINOID COMBINATIONS AND THEIR USE IN THE TREATMENT OF CANCER” (priority 2020, dated 2022).

In one data set the test system is breast cancer cell lines. In words: MTT cell viability / checkerboard assay, cell line not given. The conditions noted are these: Homo sapiens, read-out: IC50 values.
For the next data set, the system named is MDA-MB-231 cells. In words: MTT cell viability assay with Chou-Talalay median-effect / combination index analysis. The conditions noted are these: for IC50 / IC75 / IC90: Homo sapiens, MDA-MB-231, 48 h; for IC50: read-out: Dm (µM) IC50; for IC75: read-out: Dm (µM) IC75; for IC90: read-out: Dm (µM) IC90. A general note: Tetrazolium assays rely on reduction of a dye to a coloured formazan, in cell work by metabolically active cells.

The next data set concerns MCF-7 cells. Described as above. The conditions noted are these: for IC50 / IC75 / IC90: Homo sapiens; for IC75: read-out: Dm (µM) IC75; for IC90: read-out: Dm (µM) IC90.
The subject of another data set is white blood cells. The data set can be described thus: Toxicity screening in white blood cells (MTT). Type of data set: cell-based, human. The conditions noted are these: B6 (42 µM), C6 (43 µM), 24 hours. The procedure: MTT solution (5mg/ml, 20 µl) was added to existing media in the wells and the cells were incubated for 3 hours at 37 °C. After the 3 hours, the plate was centrifuged at 1000 x g for 10 minutes, the spent media removed and the formazan crystals solubilised in 100 µl DMSO. The plate was then shaken for 1 minute and the absorbance read at 550nm.
Blood samples were obtained from healthy volunteers (n=3, 16 ml/person) in ethylenediaminetetraacetic acid (EDTA) vacutainers. The samples were centrifuged at 500 x g for 10 minutes, the plasma (top layer) removed and the buffy coat collected. The buffy coat was then centrifuged at 2000 x g for 10 minutes to remove residual plasma while retaining the buffy coat. Lysis buffer (0.16M NH4Cl, 0.01 M KHCO3, 6 mM EDTA; pH 7.3) was added to the buffy coat in a 9:1 ratio (lysis buffer:buffy coat) and the mixture vortexed for 10 seconds, followed by a 10 minute incubation at room temperature. The sample was then centrifuged at 2000 x g for 10 minutes and the pellet retained (containing white blood cells). […] White blood cells were stained with trypan blue and counted using a haemocytometer. […]
The potential toxicity induced by the selected treatments (B6 and C6) were evaluated in two ways: 1) screening in the normal breast cells, MCF-10A and 2) determining the cytotoxicity to white blood cells isolated from human volunteers (Figure 14).

[1] abbreviates: MCF7, 48 h, read-out: Dm (µM) IC50.
The mark [2] stands for this setting: MCF7, read-out: Required concentration of cannabinoids: Individual.

Several values for one entry are separate records, joined by “and”; a condition that tells them apart may be missing. Equal values may be shown once. Entries after “also recorded” stand apart in the source; their conditions may differ. Read-outs that look alike come from different tables or passages of the source.

For orientation: IC75 means the point of the concentration-response curve where the effect stands at 75%. By IC90 is commonly meant the point of the concentration-response curve where the effect stands at 90%. Regarding `C=C(C)[C@@H]1CCC(C)=C[C@H]1c1c(O)cc(CCCCC)cc1O` [CBD, cannabidiol], the IC50 in the data set on breast cancer cell lines is 19 µM; with MDA-MB-231 cells, 14.7 µM; in the data set on MCF-7 cells (setting [1]), 20.6 µM; with MCF-7 cells (setting [2]), 20.6 µM. The concentration for an effect of 75% (IC75) came to 26.4 µM in the data set on MDA-MB-231 cells and 30.2 µM in the data set on MCF-7 cells (MCF7, 48 h). The IC90 stood at 47.4 µM in the data set on MDA-MB-231 cells and 44.4 µM in the data set on MCF-7 cells (MCF7, 48 h).
In the case of `CCCCCc1cc(O)c(C/C=C(\C)CCC=C(C)C)c(O)c1` [CBG, cannabigerol], the IC50 turned out to be 30 µM in the data set on breast cancer cell lines, 24.9 µM with MDA-MB-231 cells, 26.9 µM in the data set with MCF-7 cells (setting [1]) and 26.9 µM with MCF-7 cells (setting [2]). The IC75 in the data set with MDA-MB-231 cells worked out at 28.1 µM; with MCF-7 cells (MCF7, 48 h), 33 µM. Also, the IC90 in the data set with MDA-MB-231 cells is 31.8 µM; in the data set on MCF-7 cells (MCF7, 48 h), 40.5 µM.
`CCCCCc1cc(O)c2c(c1)OC(C)(C)c1ccc(C)cc1-2` [CBN, cannabinol]: the IC50 with breast cancer cell lines stood at 25 µM; in the data set with MDA-MB-231 cells it was 22.5 µM; in the data set with MCF-7 cells (setting [1]), 23.4 µM; in the data set on MCF-7 cells (setting [2]), 23.4 µM. Further, the IC75 stood at 25.7 µM in the data set on MDA-MB-231 cells and 26.6 µM in the data set with MCF-7 cells (MCF7, 48 h). For the same compound, the IC90 with MDA-MB-231 cells is 29.3 µM; in the data set on MCF-7 cells (MCF7, 48 h), 30.2 µM.
`CCCCCc1cc(O)c2c(c1)OC(C)(C)[C@@H]1CCC(C)=C[C@@H]21` [THC, Δ^9-tetrahydrocannabinol]: the IC50 in the data set on breast cancer cell lines was 32 µM; in the data set with MDA-MB-231 cells, 30 µM; in the data set on MCF-7 cells (setting [1]), 32.2 µM; in the data set with MCF-7 cells (setting [2]), 32.6 µM. The “Dm (µM) IC75” value with MDA-MB-231 cells is 38.33 µM; in the data set with MCF-7 cells, 43.11 µM. Also, the 90% effect concentration (IC90) in the data set on MDA-MB-231 cells amounted to 49 µM; with MCF-7 cells (MCF7, 48 h), 57.7 µM. The “Required concentration of cannabinoids: Individual” value with MCF-7 cells is 39.23 µM (2×) and 47.24 µM (2×).
Turning to `CC[C@@]1(O)C(=O)OCc2c1cc1n(c2=O)Cc2cc3ccccc3nc2-1` [camptothecin], the “growth inhibition / cytotoxicity” value in the data set on white blood cells is on record as “lack of growth inhibition; also recorded: limited cytotoxicity”.
